The source of these data is PMC4201327 (Organic letters, 2014).

In this test the target is Egt1 (Neurospora crassa, UniProt Q7RX33). Put plainly: oxygen consumption, NeoFox oxygen electrode. Type of test: biochemical.

The Km is the substrate concentration at which the rate is half of its maximum.

Sequence of Egt1 (Q7RX33 whole entry): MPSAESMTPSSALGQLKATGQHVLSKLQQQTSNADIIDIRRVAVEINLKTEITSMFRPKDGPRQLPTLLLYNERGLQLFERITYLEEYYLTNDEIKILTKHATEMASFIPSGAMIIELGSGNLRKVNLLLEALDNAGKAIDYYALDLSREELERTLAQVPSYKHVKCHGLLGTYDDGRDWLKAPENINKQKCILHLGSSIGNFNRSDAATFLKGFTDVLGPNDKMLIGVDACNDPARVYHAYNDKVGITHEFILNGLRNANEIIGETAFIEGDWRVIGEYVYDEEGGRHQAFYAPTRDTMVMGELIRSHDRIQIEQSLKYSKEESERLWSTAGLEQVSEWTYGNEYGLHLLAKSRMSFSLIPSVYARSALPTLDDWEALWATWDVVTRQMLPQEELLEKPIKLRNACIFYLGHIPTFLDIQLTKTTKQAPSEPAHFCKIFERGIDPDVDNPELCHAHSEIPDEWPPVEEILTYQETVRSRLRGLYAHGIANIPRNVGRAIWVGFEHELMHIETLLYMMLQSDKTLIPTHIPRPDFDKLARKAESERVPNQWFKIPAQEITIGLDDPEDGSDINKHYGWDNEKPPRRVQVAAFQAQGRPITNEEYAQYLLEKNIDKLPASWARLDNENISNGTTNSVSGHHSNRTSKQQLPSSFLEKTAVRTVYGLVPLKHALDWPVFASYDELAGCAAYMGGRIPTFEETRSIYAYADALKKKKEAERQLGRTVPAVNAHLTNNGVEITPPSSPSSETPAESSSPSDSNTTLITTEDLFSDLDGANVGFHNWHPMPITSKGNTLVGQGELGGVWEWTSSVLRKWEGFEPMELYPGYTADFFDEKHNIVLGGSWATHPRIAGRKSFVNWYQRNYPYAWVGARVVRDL

With `N[C@@H](CCC(=O)N[C@@H](CS)C(=O)O)C(=O)O` [γ-Glu-Cys], the Km is 7.68 ± 1.11 mM.
As for `C[N+](C)(C)[C@@H](Cc1cnc[nH]1)C(=O)[O-]` [compound 2, hercynine], the figure is 0.436 ± 0.03 mM.
